{"source": "patent US10655161B2", "about": "“Diagnostic and prognostic assays based on circulating tyrosine kinase activity” (Quest Diagnostics Investments Incorporated, priority 2010, dated 2020)", "test_system": "cTK activity in plasma from a CML patient harboring the T315I mutation", "assay": "Ex vivo plasma cTK activity assay, plasma from a multidrug-resistant CML patient with T315I mutation", "assay_type": "biochemical, human", "settings": "1-5 μM imatinib (FIG. 2A)", "protocol": "After incubation at 37° C. for 30 min, the PY20-HRP solution was replaced by HRP substrate solution (TMBZ)."}
{"smiles": "Cc1ccc(NC(=O)c2ccc(CN3CCN(C)CC3)cc2)cc1Nc1nccc(-c2cccnc2)n1", "note": "[Imatinib, imatinib]", "values": [{"measurement": "Inhibition of cTK activity", "result": "little inhibition"}]}
